For data set [1], the system named is Mus musculus. In words: Immunomodulatory activity in C57BL/6 mouse harboring mouse SM1 cells assessed as increase in CD8+ central memory cells at 25 mg/kg, ip dosed 5 days per week before starting 15 mg/kg, ip anti-PD1 immune checkpoint blockade therapy by flow cytometry. It is filed as functional, organism-based. The note with it: time 5.0 day/week. Background: Flow cytometry measures light scatter and fluorescence of single cells or particles in a stream.

A short description of data set [2]: Protein binding in human plasma at 10 uM incubated for 1 hr by LC-MS/MS analysis. It is filed as ADME, cell-free. The conditions noted are these: read-out: PPB (converted).
The nature of data set [3]: Half life in SGF by LC-MS/MS analysis. The format is ADME.
Data set [4] addresses T1, Protein deacetylase HDAC6 (Homo sapiens) (UniProt Q9UBN7).
T1 sequence (whole entry): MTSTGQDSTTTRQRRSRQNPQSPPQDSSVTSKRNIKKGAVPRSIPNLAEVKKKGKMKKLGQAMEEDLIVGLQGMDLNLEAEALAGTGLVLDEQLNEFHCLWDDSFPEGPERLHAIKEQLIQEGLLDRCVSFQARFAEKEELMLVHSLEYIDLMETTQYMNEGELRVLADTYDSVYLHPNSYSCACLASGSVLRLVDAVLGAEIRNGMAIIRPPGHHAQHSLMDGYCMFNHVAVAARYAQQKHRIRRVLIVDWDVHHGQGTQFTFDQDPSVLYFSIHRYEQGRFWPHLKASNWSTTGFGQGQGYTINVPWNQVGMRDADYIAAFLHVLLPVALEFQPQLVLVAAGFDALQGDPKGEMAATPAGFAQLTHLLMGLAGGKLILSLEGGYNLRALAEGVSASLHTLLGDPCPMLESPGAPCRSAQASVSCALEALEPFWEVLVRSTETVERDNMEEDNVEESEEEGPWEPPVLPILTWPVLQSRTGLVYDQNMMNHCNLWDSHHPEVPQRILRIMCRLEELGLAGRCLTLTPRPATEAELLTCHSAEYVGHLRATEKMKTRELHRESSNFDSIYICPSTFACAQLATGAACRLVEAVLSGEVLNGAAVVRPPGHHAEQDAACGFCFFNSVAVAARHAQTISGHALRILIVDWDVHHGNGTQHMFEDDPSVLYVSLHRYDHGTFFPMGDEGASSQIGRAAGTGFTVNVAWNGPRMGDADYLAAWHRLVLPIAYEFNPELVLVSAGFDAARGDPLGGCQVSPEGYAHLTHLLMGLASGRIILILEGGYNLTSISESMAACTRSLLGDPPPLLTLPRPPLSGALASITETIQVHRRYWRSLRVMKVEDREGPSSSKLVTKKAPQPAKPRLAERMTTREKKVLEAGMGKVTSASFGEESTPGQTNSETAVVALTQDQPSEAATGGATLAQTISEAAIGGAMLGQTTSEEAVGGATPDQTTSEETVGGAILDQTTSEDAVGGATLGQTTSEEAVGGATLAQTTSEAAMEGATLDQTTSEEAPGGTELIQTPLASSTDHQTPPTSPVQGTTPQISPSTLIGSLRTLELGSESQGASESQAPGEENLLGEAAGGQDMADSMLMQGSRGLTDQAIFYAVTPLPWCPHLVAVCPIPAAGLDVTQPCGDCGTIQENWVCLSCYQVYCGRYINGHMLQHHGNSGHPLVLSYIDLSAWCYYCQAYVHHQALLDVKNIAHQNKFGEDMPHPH
The data set is described as follows: Inhibition of human HDAC6 in human WM164 cells increase in acetylated alpha-tubulin levels at 0.1 to 10 uM by immunoblot analysis. It is filed as cell-based. The note with it: dose microM 0.1-10.

A short description of data set [5]: Half life in human plasma at 10 uM by LC-MS/MS analysis. The format is ADME, cell-free.
In data set [6] the target is Histone deacetylase (Homo sapiens) (UniProt Q13547+O15379+Q9UBN7+Q92769+Q9UQL6+Q8WUI4+Q9BY41+Q96DB2+P56524+Q9UKV0+Q969S8). The data set is described as follows: Inhibition of human HDAC in human WM164 cells increase in acetylated histone H3 levels at 0.1 to 10 uM by immunoblot analysis. It is filed as cell-based. The conditions noted are these: dose microM 0.1-10. Background: In western blotting, separated proteins are transferred to a membrane and probed.

The subject of data set [7] is Mus musculus. In words: Immunomodulatory activity in C57BL/6 mouse harboring mouse SM1 cells assessed as increase in CD8+ effector T-cells and effector memory cells at 25 mg/kg, ip dosed 5 days per week by flow cytometry. The note with it: time 5.0 day/week. It is filed as functional, organism-based.
The subject of data set [8] is Mus musculus. In words: Immunomodulatory activity in C57BL/6 mouse harboring mouse SM1 cells assessed as increase in M1/M2 macrophages ratio at 25 mg/kg, ip dosed 5 days per week by flow cytometry. The note with it: time 5.0 day/week. The format is functional, organism-based.
Data set [9] has as its system Mus musculus. In words: Immunomodulatory activity in C57BL/6 mouse harboring mouse SM1 cells assessed as reduction in F4/80+ CD206+ pro-tumor M2 macrophages at 25 mg/kg, ip dosed 5 days per week before starting 15 mg/kg, ip anti-PD1 immune checkpoint blockade therapy by flow cytometry. It is filed as functional, organism-based. The note with it: time 5.0 day/week.
The target in data set [10] is T1, Protein deacetylase HDAC6 (Homo sapiens). The data set is described as follows: Inhibition of human HDAC6 in human WM164 cells assessed as decrease in STAT3 Y705 phosphorylation at 5 uM pre-incubated before IL6 stimulation for 20 mins by immunoblot analysis. It is filed as cell-based.
The subject of data set [11] is Mus musculus. The data set is described as follows: Immunomodulatory activity in C57BL/6 mouse harboring mouse SM1 cells assessed as increase in CD8+ effector T-cells and effector memory cells at 25 mg/kg, ip dosed 5 days per week before starting 15 mg/kg, ip anti-PD1 immune checkpoint blockade therapy by flow cytometry. It is filed as functional, organism-based. The conditions noted are these: time 5.0 day/week.

In data set [12] the test system is HEK293. In words: Selectivity index, ratio of IC50 for human HDAC6 expressed in HEK293/T17 cells (unknown origin) to human HDAC6 expressed in HEK293/T17 cells. It is filed as cell-based.
Data set [13] concerns Mus musculus. The data set is described as follows: Immunomodulatory activity in C57BL/6 mouse harboring mouse SM1 cells assessed as effect on immunosuppressive T-regs at 25 mg/kg, ip dosed 5 days per week before starting 15 mg/kg, ip anti-PD1 immune checkpoint blockade therapy by flow cytometry. It is filed as functional, organism-based. The conditions noted are these: time 5.0 day/week.

A further data set deals with T2, Histone deacetylase 11 (Homo sapiens, UniProt Q96DB2).
T2 sequence (Q96DB2 whole entry): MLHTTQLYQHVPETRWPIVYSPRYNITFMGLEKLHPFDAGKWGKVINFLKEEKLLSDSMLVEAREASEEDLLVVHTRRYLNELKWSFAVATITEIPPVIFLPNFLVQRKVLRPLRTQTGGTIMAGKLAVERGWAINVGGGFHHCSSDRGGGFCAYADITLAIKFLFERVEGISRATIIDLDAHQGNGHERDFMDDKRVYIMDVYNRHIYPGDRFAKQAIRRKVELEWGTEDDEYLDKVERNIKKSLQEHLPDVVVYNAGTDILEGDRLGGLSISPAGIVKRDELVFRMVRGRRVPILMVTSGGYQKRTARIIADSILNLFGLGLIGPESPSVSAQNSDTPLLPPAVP
The data set is described as follows: Inhibition of human HDAC11 expressed in HEK293/T17 cells pre-incubated for 10 mins before […] addition and measured after 30 mins by fluorescence-based assay. It is filed as cell-based.

For data set [14], the system named is Mus musculus. The data set is described as follows: Immunomodulatory activity in C57BL/6 mouse harboring mouse SM1 cells assessed as reduction in natural killer T cells at 25 mg/kg, ip dosed 5 days per week before starting 15 mg/kg, ip anti-PD1 immune checkpoint blockade therapy by flow cytometry. The format is functional, organism-based. The conditions noted are these: time 5.0 day/week.

Data set [15] concerns HEK293. The data set is described as follows: Selectivity index, ratio of IC50 for human HDAC9 expressed in HEK293/T17 cells (unknown origin) to human HDAC6 expressed in HEK293/T17 cells. It is filed as cell-based.

Molecules are shown by their SMILES. The source made the active and inactive calls. No cut-off for these calls is given here.

As a reminder, the half-life is how long it takes for the measured level to halve. In general, IC50 refers to the concentration that inhibits the measured activity by half.

Consider `NCc1ccc(NC(=O)N(CCCCO)Cc2ccc(C(=O)NO)cc2)cc1`, for which the outcome in the data set with Mus musculus [1], in the data set with Mus musculus [7], in the data set on Mus musculus [8], in the data set on Mus musculus [9], in the data set on Mus musculus [11] and in the data set on Mus musculus [14] was Active. In addition, the fraction unbound at 1 h, 10 µM in data set [2] was 0.981. Further, the half-life in data set [3] is > 5 h. Further, the inhibition entry in [4] is “Dose-dependent effect”. For the same molecule, the half-life at 10 µM in [5] was > 5 h. For the same molecule, the inhibition entry in data set [6] and in data set [10] was “Active” each time. Moreover, the figures for the Ratio IC50 in the data set on HEK293 [12] and in the data set on HEK293 [15] were 1 and 15700, respectively. Besides, in the data set on Mus musculus [13], the outcome was inactive. Besides, the IC50 against Histone deacetylase 11 was > 50 µM.

Values taken from ChEMBL document CHEMBL4725372, “Rational Design of Suprastat: A Novel Selective Histone Deacetylase 6 Inhibitor with the Ability to Potentiate Immunotherapy in Melanoma Models” (J Med Chem, 2020).
